Experimental data taken from patent US20240245783A1, “METALLO-BETA-LACTAMASE INHIBITOR” (priority 2021, published 2024).

How the values were obtained:
[1] = target: T1, recombinant metallo-β-lactamase (recombinant IMP-1) (Serratia marcescens, UniProt P52699); experiment: Inhibition of meropenem degradation by recombinant IMP-1 (Test Example 1); type: biochemical; settings: 100 μM meropenem, no inhibitor; 1 hour at 37° C.
T1 construct: made in house; host or cells: E. coli BL21(DE3), vector pET29a
Procedure: Based on the description of NON PATENT LITERATURE 5, a recombinant metallo-β-lactamase (recombinant IMP-1) was prepared. “NG_049172” of Database: RefSeq as the IMP-1 gene was incorporated into vector pET29a (Novagen), and then expressed in E. coli BL21(DE3) (Invitrogen).
Recombinant IMP-1 was dissolved in a 50 mM sodium phosphate buffer (pH 7.6) at a concentration of 0.25 μg/ml. Furthermore, zinc chloride was added to the solution in such a manner that the concentration was 0.1 μM. The resultant in this state was subjected to preincubation at 37° C. for 10 minutes. […] After 1 hour of incubation at 37° C. residual meropenem was quantified by tandem mass spectrometry. Meropenem was quantified by a multiple reaction monitoring method. […]
Reverse phase column: YMC-Triat C18 Plus column (2.1×50 mm); column temperature: 45° C.; mobile phase (2 liquids): mobile phase A (0.1% formic acid aqueous solution), mobile phase B (acetonitrile); gradient: increase from 1% B to 80% B for 10 minutes, keep it at 80% B for 0.5 minutes, and then return it to 1% B over 1 minute. […] Detection: multiple reaction monitoring, parent ion at 384.2, child ion at 68.1; measured in a positive ion mode.
FIG. 4 depicts a graph showing the results of quantifying the peak area of meropenem detected in FIG. 3. The peak of meropenem alone is expressed as 100%.

[2] = test system: IMP-1-expressing Klebsiella pneumoniae; experiment: Survival of Leukopenia mice infected with IMP-1-expressing Klebsiella pneumoniae (Test Example 6); type: in vivo; settings: meropenem 10 mg/kg alone subcutaneously; 48 hours; Leukopenia ddY mice
Procedure: DTPA-conjugated cefalexin (compound 1)'s effect of enhancing the drug susceptibility of pathogenic bacteria was examined by an in vivo experiment using bacteria-infected mice. To prepare a compromised Leukopenia mouse model, 0.1 mL of cyclophosphamide monohydrate (Sigma-Aldrich) prepared with PBS was administered intraperitoneally to 4-week-old male ddY mice (Japan SLC) at 250 mg/kg at 4 days before infection. IMP-1-expressing Klebsiella pneumoniae used herein was a clinical isolate provided by Kumamoto University Hospital. The bacteria were cultured overnight with shaking in LB medium at 37° C., then diluted 50-fold with LB medium, and further cultured with shaking, so that the turbidity (600 nm) was 1.5 or higher. The bacteria were centrifuged to remove the medium, washed twice with PBS, and then diluted with PBS to 5×10^5 CFU/mL. In the mouse infection experiment, each Leukopenia mouse was infected with 0.1 mL (5×10^4 CFU) of IMP-1-expressing Klebsiella pneumoniae by intraperitoneal injection. Thirty minutes after infection, 0.1 mL of a mixed solution containing meropenem (Wako Pure Chemical Industries, Ltd.) and compound 1 (DTPA-CEF) was subcutaneously administered to each mouse of a treatment mouse group at 10 mg/kg and 50 mg/kg, respectively. […] Forty-eight hours after infection, mice were assessed for viability. […]

[3] = test system: multidrug-resistant Pseudomonas aeruginosa; experiment: Growth suppression of multidrug-resistant Pseudomonas aeruginosa clinical isolates (Test Example 7); type: cell-based; settings: MEPM 2 μg/ml alone, compound 8 20 μM (15.5 μg/ml) alone, Combination = both, 3 wells
Procedure: The effect of NODA-GA-conjugated doripenem (compound 8) on the susceptibility of a Pseudomonas aeruginosa clinical isolate to a carbapenem antibacterial agent was evaluated by the following method. The Pseudomonas aeruginosa clinical isolate was cultured overnight with shaking in LB medium. The bacterial solution was diluted to 1/1000 with LB medium, used as a test bacterial solution, and then seeded in a 96-well plate. Meropenem (Wako Pure Chemical Industries, Ltd.) was added to this bacterial solution in such a manner that the concentration was 2 μg/ml. The effect of NODA-GA-doripenem alone was also examined. The bacteria were cultured in an incubator at 37° C. for one day, and the growth at that time was measured by turbidity (655 nm).
MEPM in Table 1 is meropenem (2 μg/ml) administered alone; NODA-GA-doripenem is compound 8 (20 μM; 15.5 μg/ml) administered alone; Combination means a combined use of meropenem (2 μg/ml) and compound 8 (20 μM; 15.5 μg/ml).

T1 sequence (P52699 19-246 limits assumed): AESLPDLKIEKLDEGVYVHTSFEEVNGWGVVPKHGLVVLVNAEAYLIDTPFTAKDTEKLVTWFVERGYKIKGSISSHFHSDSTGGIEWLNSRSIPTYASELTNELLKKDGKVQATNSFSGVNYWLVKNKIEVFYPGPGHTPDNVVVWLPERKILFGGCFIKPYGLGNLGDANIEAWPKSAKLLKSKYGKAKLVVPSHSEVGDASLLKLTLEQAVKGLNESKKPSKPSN

C[C@@H](O)[C@H]1C(=O)N2C(C(=O)O)=C(S[C@@H]3CN[C@H](C(=O)N(C)C)C3)[C@H](C)[C@H]12 [meropenem, reference compound]
degradation of meropenem on incubation with IMP-1 [1]: completely degraded
survival [2]: All mice of the meropenem administration group died
suppression of bacterial growth ([3]; strain 808#1): X (x indicates that the number of wells in which suppression of bacterial growth was confirmed was 1 or less)
suppression of bacterial growth ([3]; strain 808#2): X (x indicates that the number of wells in which suppression of bacterial growth was confirmed was 1 or less)
suppression of bacterial growth ([3]; strain MR1): X (x indicates that the number of wells in which suppression of bacterial growth was confirmed was 1 or less)
suppression of bacterial growth ([3]; strain MR2): X (x indicates that the number of wells in which suppression of bacterial growth was confirmed was 1 or less)
suppression of bacterial growth ([3]; strain MR3): X (x indicates that the number of wells in which suppression of bacterial growth was confirmed was 1 or less)
suppression of bacterial growth ([3]; strain MR4): X (x indicates that the number of wells in which suppression of bacterial growth was confirmed was 1 or less)
suppression of bacterial growth ([3]; strain MR5): X (x indicates that the number of wells in which suppression of bacterial growth was confirmed was 1 or less)
suppression of bacterial growth ([3]; strain MR6): X (x indicates that the number of wells in which suppression of bacterial growth was confirmed was 1 or less)
suppression of bacterial growth ([3]; strain MR7): X (x indicates that the number of wells in which suppression of bacterial growth was confirmed was 1 or less)
suppression of bacterial growth ([3]; strain MR8): X (x indicates that the number of wells in which suppression of bacterial growth was confirmed was 1 or less)
suppression of bacterial growth ([3]; strain MR9): X (x indicates that the number of wells in which suppression of bacterial growth was confirmed was 1 or less)
suppression of bacterial growth ([3]; strain MR10): X (x indicates that the number of wells in which suppression of bacterial growth was confirmed was 1 or less)
suppression of bacterial growth ([3]; strain MR11): X (x indicates that the number of wells in which suppression of bacterial growth was confirmed was 1 or less)
suppression of bacterial growth ([3]; strain MR12): X (x indicates that the number of wells in which suppression of bacterial growth was confirmed was 1 or less)
suppression of bacterial growth ([3]; strain MR13): X (x indicates that the number of wells in which suppression of bacterial growth was confirmed was 1 or less)
suppression of bacterial growth ([3]; strain MR14): X (x indicates that the number of wells in which suppression of bacterial growth was confirmed was 1 or less)
suppression of bacterial growth ([3]; strain MR15): X (x indicates that the number of wells in which suppression of bacterial growth was confirmed was 1 or less)
suppression of bacterial growth ([3]; strain MR16): X (x indicates that the number of wells in which suppression of bacterial growth was confirmed was 1 or less)
suppression of bacterial growth ([3]; strain NM1): X (x indicates that the number of wells in which suppression of bacterial growth was confirmed was 1 or less)
suppression of bacterial growth ([3]; strain NM2): X (x indicates that the number of wells in which suppression of bacterial growth was confirmed was 1 or less)
suppression of bacterial growth ([3]; strain NM3): X (x indicates that the number of wells in which suppression of bacterial growth was confirmed was 1 or less)
suppression of bacterial growth ([3]; strain NM4): X (x indicates that the number of wells in which suppression of bacterial growth was confirmed was 1 or less)
suppression of bacterial growth ([3]; strain NM5): X (x indicates that the number of wells in which suppression of bacterial growth was confirmed was 1 or less)
